Values belong to the molecule of their own block, whether it stands above or below them.
How the values were obtained:
[1] = system: normal and transformed BJ cells; experiment: a131 SAR analysis: pH3(Ser10) immunoblot, BrdU incorporation, subG1 FACS; type: cell-based, human; design: key: Group 1: possess the dual-inhibitory properties of both causing the arrest of normal BJ cells at the G1/S phase and also causing mitotic arrest/catastrophe in transformed BJ cells; Group 2: only cause the arrest of normal BJ cells at the G1/S phase; Group 3: cause mitotic arrest/catastrophe in transformed BJ cells, but do not arrest normal BJ cells at the G1/S phase; Group 4: are inactive or weakly active; conditions: 5 μM, 48 h
Description: (§1) Cell death was assessed via Annexin V and/or PI (propidium iodide) staining according to the manufacturer's instructions (eBioscience). Cell growth arrest was assessed by direct measurement of DNA synthesis through incorporation of the nucleoside analog bromodeoxyuridine (BrdU). Briefly, BrdU (30 μM, Sigma-Aldrich) was added for 2 h before harvesting cells. Cells were subsequently stained with Pacific Blue-conjugated BrdU antibody (Invitrogen) for 1 h followed by PI staining. Stained cells were analyzed by MACSQuant (MACS). Three independent experiments were performed in triplicate. The percentage of Annexin V/PI- or BrdU-positive cells was quantified using Flow Jo software (Becton Dickinson). Where indicated, the combined activity of caspase-3/7 was determined using the caspase-Glo 3/7 Assay Kit (Promega) and normalized to the number of viable cells as determined by MTT assay.
Total cell lysates were prepared with 1% triton lysis buffer [25 mM Tris HCl (pH 8.0), 150 mM NaCl, 1% triton-X100, 1 mM dithiothreitol (DTT), protease inhibitor mix (Complete Mini, Roche) and phosphatase inhibitor (PhosphoStop, Roche)] and subjected to SDS-PAGE. The following antibodies were used for immunoblotting: anti-β-actin (Sigma-Aldrich), anti-cleaved PARP (Abcam, #ab32064), anti-PI5P4Kα (#5527), anti-PI5P4Kβ (#9694), anti-cleaved caspase-3 (#9664), anti-pHistone H3(Ser10) (#3377), anti-pAkt(S473) (#9271), anti-pAkt(T308) (#13038), anti-total Akt (#9272), anti-p70S6K(T389) (#9234), anti-total p70S6K (#9202), anti-pErk (#4370), anti-γ-Histone H2AX (#9718) (Cell signaling) and anti-PIK3IP1 (Proteintech, #16826-1-AP). The secondary antibodies used were sheep anti-mouse IgG HRP and donkey anti-rabbit IgG HRP (Amersham; 1:2000 dilution). Immunoreactive proteins were visualized using ECL reagent (Amersham). Where indicated, intensities of protein bands were quantified by densitometry (Odyssey V3.0), normalized to their loading controls and then calculated as fold expression change relative to DMSO control.

PI5P4Kα = biological target: T1, PI5P4Kα (Homo sapiens, UniProt P48426); experiment: Cell-free PI5P4Kα activity assay (ADP-Glo); type: biochemical; conditions: 1 h pre-incubation; PI(5)P 20 μM, ATP 10 μM; read-out: IC50, kinase activity of purified PI5P4Kα in vitro
T1 construct: gift from Daiichi Sankyo Co., Ltd. and Daiichi Sankyo RD Novare Co., Ltd
Description: For cell-free PI5P4Kα activity assays, serial dilutions of compounds were pre-incubated with 1 ng of PI5P4Kα (kind gift from Daiichi Sankyo Co., Ltd. and Daiichi Sankyo RD Novare Co., Ltd.) in reaction buffer [50 mM HEPES (pH 7.0), 13 mM MgCl2, 0.005% CHAPS, 0.01% BSA, 2.5 mM DTT] for 1 h at 25° C. DOPS (80 μM, Avanti polar lipids), PI(5)P (20 μM, Echelon) and ATP (10 μM, Sigma-Aldrich) were added and further incubated for 90 min at room temperature. PI5P4Kα activity was measured by recording luminescent signals (Tecan) using an ADP-Glo Kinase Assay (Promega) according to the manufacturer's protocol.

[2] = system: normal and transformed BJ cells; experiment: Chemoprotection: a166 pre-treatment followed by a159, paclitaxel or etoposide; type: cell-based, human; conditions: without a166 pre-treatment
Description: as §1

[3] = system: HCT-15 human colon adenocarcinoma cells; experiment: HCT-15 tumor xenograft in nude mice; type: in vivo, mouse; conditions: for antitumor activity (tumor volume): a131 20 mg/kg, b5 40-80 mg/kg, 12 days, paclitaxel IV
From the text: BALB/c athymic female nude mice (nu/nu, 5-7 weeks) (InVivos) were kept under specific pathogen-free (SPF) conditions. The care and use of mice was approved by the Duke-NUS IACUC in accordance with protocol 2015/SHS/1030. HCT15 human colon cancer cells (5×10^6) or MDA-MB-231 human breast cancer cells (4×10^6 with Matrigel) were subcutaneously injected into the flanks of mice. When the mean tumor volume reached 100-300 mm^3 (Day 1), the mice were randomly divided into experimental groups of 6 mice by an algorithm that moves animals around to achieve the best case distribution to assure that each treatment group has similar mean tumor burden and standard deviation. No statistical method was used to predetermine sample size. […] Paclitaxel (Cayman Chemical) was dissolved in ethanol:Tween 80=1:3 (v/v) solution followed by the addition of a 5% glucose solution (final ratio, ethanol:Tween 80:5% glucose=5:15:80) and injected via the tail vain (IV). Tumor dimensions were measured using calipers, and tumor volume (mm^3) was calculated using the formula width^2×length/2 in a blinded fashion. On Day 12 (HCT15) or Day 16 (MDA-MB-231), mice were sacrificed. Tumors were collected, fixed overnight in 4% paraformaldehyde (PFA) and stored in 70% ethanol. For immunostaining, antigens were retrieved from formaldehyde-fixed, paraffin-embedded tumor tissue sections for 30 min by boiling in sodium citrate buffer (pH 6.0) using a microwave histoprocessor (Milestone). Endogenous peroxidase activity in tissue sections was depleted by treatment with 3% hydrogen peroxide (H2O2 in 1×TBS) for 20 min at room temperature. Tumor tissue sections were incubated overnight with anti-β-tubulin (Abcam; 1:100 in 3% BSA/TBS-Tween 20) at 4° C. followed by incubation with goat anti-rabbit FITC-conjugated secondary antibody (Invitrogen; 1:200 in 3% BSA/TBS) for 1 h at 25° C. After dehydration treatment, coverslips were mounted using DAPI mounting medium (Vector). Images were acquired in 3D-SIM mode using a super resolution microscope (Nikon), and the number of cells with either 2 or mitotic-spindles was quantified (n>50 cells per section, 6-7 sections per treatment). For detection of apoptosis using the TUNEL method, the ApopTag Plus Peroxidase In Situ Apoptosis Detection Kit (Millipore) was used for formaldehyde-fixed, paraffin-embedded tumor tissue sections treated with b5 (80 mg/kg, IP) or control vehicle for 12 days. Slide scans were acquired using a MetaSystems Metafer built on a Zeiss Axiolmager Z.2 upright microscope. The system is equipped with a CoolCubel camera and a Zeiss Plan-Neofluar 20×/0.5 Ph2 objective lens. Image acquisition was controlled with Metafer4 software, and stitching was performed with the VSlide software and further processed using the open source software FIJI. A custom macro was used to batch process the images in the following sequence: Gaussian filter, color deconvolution of hematoxylin and DAB, thresholding the hematoxylin image, watershed to separate touching nuclei, and then count the number of hematoxylin-stained nuclei. For the DAB image, a fixed threshold was used, watershed applied and the number of DAB stained nuclei counted. In all cases, no data or animals were excluded and results are expressed as mean and standard deviation of the mean.

[4] = system: normal and transformed BJ cells; experiment: Crystal violet / MTT viability of isogenic normal and transformed BJ cells; conditions: 72 h; crystal violet and MTT (0.1-40 μM)
PIK3IP1 = experiment: qRT-PCR of PIK3IP1 mRNA in Ras- or Raf-mutant cancer cell lines; type: cell-based, human; conditions: U0126 and/or SCH772984, 24 h
Description: […] human […] ID NO: 11, [NT] ID NO: 12), human […] ID NO: 13, [NT] ID NO: 14), human […] ID NO: 15, [NT] ID NO: 16) and human PIK3IP1 ([NT] ID NO: 17, [NT] ID NO: 18). The TATA-binding protein (TBP) gene was used for normalization. All PCR reactions were performed in triplicate.

[5] = system: MDA-MB-231 human breast tumor cells; experiment: MDA-MB-231 tumor xenograft in nude mice; type: in vivo, mouse; conditions: a131 20 mg/kg, b5 40-80 mg/kg, PO or IP twice daily, 15 days
From the text: BALB/c athymic female nude mice (nu/nu, 5-7 weeks) (InVivos) were kept under specific pathogen-free (SPF) conditions. The care and use of mice was approved by the Duke-NUS IACUC in accordance with protocol 2015/SHS/1030. HCT15 human colon cancer cells (5×10^6) or MDA-MB-231 human breast cancer cells (4×10^6 with Matrigel) were subcutaneously injected into the flanks of mice. When the mean tumor volume reached 100-300 mm^3 (Day 1), the mice were randomly divided into experimental groups of 6 mice by an algorithm that moves animals around to achieve the best case distribution to assure that each treatment group has similar mean tumor burden and standard deviation. No statistical method was used to predetermine sample size. […] Tumor dimensions were measured using calipers, and tumor volume (mm^3) was calculated using the formula width^2×length/2 in a blinded fashion. […] Images were acquired in 3D-SIM mode using a super resolution microscope (Nikon), and the number of cells with either 2 or mitotic-spindles was quantified (n>50 cells per section, 6-7 sections per treatment). […] For the DAB image, a fixed threshold was used, watershed applied and the number of DAB stained nuclei counted. In all cases, no data or animals were excluded and results are expressed as mean and standard deviation of the mean.

T1 sequence (P48426 whole entry): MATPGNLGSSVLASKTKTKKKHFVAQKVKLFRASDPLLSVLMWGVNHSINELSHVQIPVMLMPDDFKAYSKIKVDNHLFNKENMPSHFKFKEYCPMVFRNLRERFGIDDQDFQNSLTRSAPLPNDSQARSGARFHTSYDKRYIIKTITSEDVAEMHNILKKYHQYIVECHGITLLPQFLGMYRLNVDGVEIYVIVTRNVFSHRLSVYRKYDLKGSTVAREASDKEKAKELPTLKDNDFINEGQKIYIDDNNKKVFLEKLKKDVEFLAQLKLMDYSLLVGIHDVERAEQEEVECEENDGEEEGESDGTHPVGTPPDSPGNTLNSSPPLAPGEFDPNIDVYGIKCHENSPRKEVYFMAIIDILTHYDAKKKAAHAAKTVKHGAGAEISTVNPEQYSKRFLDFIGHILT

Compound: N#C/C(=C\c1cccc2cnccc12)c1c[nH]c2ccc(OCCCN3CCCC3)cc12 [b12]
Group (a131 SAR analysis) [1]: Group 2

IC50 (PI5P4Kα): 2100 nM
Compound: COc1cc(/C=C(\C#N)C(=O)c2ccc(O)c(O)c2)cc(I)c1O [I-OMe-AG-538]

Compound: N#C/C(=C\c1cccc2cnccc12)c1c[nH]c2ncccc12 [a167]
Group (a131 SAR analysis) [1]: Group 4

Compound: N#C/C(=C\c1cccc2cnccc12)c1nc2ccccc2[nH]1 [a169]
Group (a131 SAR analysis) [1]: Group 4

Compound: COCCOc1ccc2[nH]cc(/C(C#N)=C/c3cccc4cnccc34)c2c1 [b16]
Group (a131 SAR analysis) [1]: Group 2

Compound: N#C/C(=C\c1cncc2ccccc12)c1c[nH]c2ccccc12 [a132]
Group (a131 SAR analysis) [1]: Group 4

Compound: CC(=O)O[C@H]1C(=O)[C@@]2(C)[C@H]([C@H](OC(=O)c3ccccc3)[C@]3(O)C[C@H](OC(=O)[C@H](O)[C@@H](NC(=O)c4ccccc4)c4ccccc4)C(C)=C1C3(C)C)[C@]1(OC(C)=O)CO[C@@H]1C[C@@H]2O [paclitaxel]
selectivity against transformed BJ cells, treatment alone [2]: showed minimal selectivity against transformed BJ cells
antitumor activity (tumor volume) ([3]; PO or IP twice daily): did not show significant antitumor activity
selective killing of transformed versus normal BJ cells (cell viability) [4]: showed minimal selectivity

Compound: N#C/C(=C\c1cccc2ncccc12)c1c[nH]c2ccccc12 [a159]
Group (a131 SAR analysis) [1]: Group 3

Compound: N#C/C(=C\c1cccc2cccnc12)c1c[nH]c2ccccc12 [a158]
Group (a131 SAR analysis) [1]: Group 2

Compound: O=C(Nc1ccc2[nH]nc(-c3ccncc3)c2c1)[C@@H]1CCN(CC(=O)N2CCN(c3ccc(-c4ncccn4)cc3)CC2)C1 [SCH772984]
PIK3IP1 mRNA expression after MEK/ERK inhibition (PIK3IP1): attenuates Ras- and Raf-mediated suppression of PIK3IP1

Compound: CC(=O)NCCC(=O)n1cc(/C(C#N)=C/c2cccc3cnccc23)c2ccccc21 [b9]
Group (a131 SAR analysis) [1]: Group 1

Compound: COC(=O)Nc1nc2ccc(C(=O)c3cccs3)cc2[nH]1 [nocodazole]
selective killing of transformed versus normal BJ cells (cell viability) [4]: showed minimal selectivity

Compound: N#CC(=C(/N)Sc1ccccc1N)/C(C#N)=C(\N)Sc1ccccc1N [U0126]
PIK3IP1 mRNA expression after MEK/ERK inhibition (PIK3IP1): attenuates Ras- and Raf-mediated suppression of PIK3IP1

Compound: CN1CCN(C(=O)Cn2cc(/C(C#N)=C/c3cccc4cnccc34)c3ccccc32)CC1 [b94]
Group (a131 SAR analysis) [1]: Group 2

Compound: CN1CCN(CC(=O)n2cc(/C(C#N)=C/c3cccc4cnccc34)c3ccccc32)CC1 [b5, (Z)-3-(isoquinolin-5-yl)-2-(1-(2-(4-methylpiperazin-1-yl)acetyl)-1H-indol-3-yl)acrylonitrile]
cancer cell death in tumor sections (TUNEL staining) ([3]; HCT-15 tumor sections, Day 12, b5 80 mg/kg IP): cancer cell death as determined by TUNEL staining
antitumor activity (tumor volume) ([3]; PO or IP twice daily): marked antitumor efficacies
body weight loss ([3]; xenograft-bearing mice, PO or IP twice daily): without any body weight loss
antitumor activity (tumor volume) [5]: marked antitumor efficacies
Group (a131 SAR analysis) [1]: Group 1

— patent US20190350964A1, “ANTI-CANCER COMPOUNDS AND USES THEREOF” (NATIONAL UNIVERSITY OF SINGAPORE, priority 2016, published 2019)
